According to patent publication US20090258850A1, “STABILIZED THERAPEUTIC COMPOSITIONS AND FORMULATIONS” (priority 2007, published 2009):

B1: TPO: TPO injected IP in mice; promotes CFU-S reconstitution (protein, UniProt P40226 22-356, looked up)
Thrombopoietin: SPVAPACDPRLLNKLLRDSHLLHSRLSQCPDVDPLSIPVLLPAVDFSLGEWKTQTEQSKAQDILGAVSLLLEGVMAARGQLEPSCLSSLLGQLSGQVRLLLGALQGLLGTQLPLQGRTTAHKDPNALFLSLQQLLRGKVRFLLLVEGPTLCVRRTLPTTAVPSSTSQLLTLNKFPNRTSGLLETNFSVTARTAGPGLLSRLQGFRVKITPGQLNQTSRSPVQISGYLNRTHGPVNGTHGLFAGTSLQTLEASDISPGAFNKGSLAFNLQGGLPPSPSLAPDGHTPFPPSPALPTTHGSPPQLHPLFPDPSTTMPNSTAPHPVTMYPHPRNLSQET
B2: Peg-G-CSF: Peg-G-CSF injected IP in mice (protein, UniProt P09919 31-207, looked up)
Granulocyte …: TPLGPASSLPQSFLLKCLEQVRKIQGDGAALQEKLVSECATYKLCHPEELVLLGHSLGIPWAPLSSCPSQALQLAGCLSQLHSGLFLYQGLLQALEGISPELGPTLDTLQLDVADFATTIWQQMEELGMAPALQPTQGAMPAFASAFQRRAGGVLVASHLQSFLEVSYRVLRHLAQP
modifications: PEGylated
notes: Peg-G-CSF injected IP in mice

Assays:
[1] = test system: BALB/c mice exposed to 6 Gy TBI; experiment: Radioprotective effect in BALB/c mice after midlethal 6 Gy TBI; type: in vivo
Procedure: (§1) Combination Treatment with androst-5-ene-3β,17β-diol formulation and TPO. For direct measurements of the radioprotective effect of 5-AED, BALB/c mice were exposed to a midlethal dose of 6 Gy TBI. Two hours after TBI, mice were injected IM with 40 mg/kg 5-AED or the carrier as placebo, with or without 0.225 μg TPO or 10 μg Peg-G-CSF IP. Radioprotective effects of 5-AED on immature repopulating cell subsets were assessed by exposing BALB/c donor mice to 3 fractions of 2 Gy TBI, separated by 24 hours, and treatment with 40 mg/Kg/d 5-AED or the carrier IM, or 0.7 μg TPO IP after each fraction or a single injection of 10 μg Peg-G-CSF IP after the first fraction. Twenty four hours after the last fraction, bone marrow of donor mice was examined for immature cell content per femur using the marrow repopulating ability (MRA day 13) assay and the CFU-S day 12 after transplantation in 8 Gy irradiated mice.

non-irradiated monkeys = settings: 15 mg/Kg/d i.m. x5 days, no TBI
Procedure: Primates used in this study were purpose bred rhesus monkeys (Macaca Mulatta), weighing 2.5 to 4.0 Kg each and aged 2 to 3 years. 5-Androstene-3β,17β-diol (5-AED), prepared as a 100 mg/mL aqueous suspension using 7.4 mM sodium phosphate buffer, pH 6.0, containing 0.5% polysorbate 80, 0.02% benzalkonium chloride and 4.8% mannitol and its vehicle, consisting of the identical formulation without 5-AED, was administered intramuscularly (i.m.) at a dose of 15 mg/kg/d (150 μL/Kg/d), for 5 consecutive days. […] 5-AED and vehicle were administered by deep intramuscular injections into alternating left and right m. vastus lateralis. In the second study, 10 animals (3 males and 2 females in each group) received either 15 mg/Kg/d (150 μL/Kg/d), 5-AED in a stabilized formulation or vehicle for 5 consecutive days, but were not subjected to TBI.
Clinical pathology was conducted as follows: Bone marrow was aspirated under neurolept anesthesia using Ketalar (Apharmo, Arnhem, the Netherlands) and Domitor (Pfizer, Capelle a/d lJssel, The Netherlands). Small bone marrow aspirates for analytical purposes were taken from the shafts of the femurs or humeri using pediatric spinal needles and collected in bottles containing 2 mL HEPES buffered Hanks' balanced salt solution (HBBS) with 200 IU sodium heparin/mL (Leo Pharmaceutical Products, Weesp, the Netherlands). Low-density cells were isolated using Lymphoprep (density 1.077, Fresenius, Oslo, Norway) separation. Cells were plated in 35-mm dishes (Falcon 1008, Becton Dickinson, Leiden, The Netherlands) in 1 mL enriched Dulbecco's medium containing 0.8% methylcellulose, 5% FCS, and additives. […] Colony counts were calculated per mL of bone marrow aspirated using the recovery of cells over the Ficoll density gradient. […] Complete blood cell counts were measured daily using an ABC-vet animal blood counter (Scil, ABX diagnostics, Montpellier, France). […] Measurements were done using a FACSCalibur (Becton Dickinson, Leiden, The Netherlands) and 50,000 events were collected in duplicate and analyzed using the CellQuest (Becton Dickinson) software. […]

[2] = test system: immature repopulating cells in bone marrow of BALB/c donor mice; experiment: Immature repopulating cell subsets (CFU-S day 12, MRA day 13) after fractionated 3x2 Gy TBI of BALB/c donor mice; type: in vivo; settings: fractionated 3×2 Gy TBI; for increase in CFU-S day 12 relative to radiation controls: 40 mg/Kg/d 5-AED IM, 0.7 μg TPO IP after each fraction
Procedure: as §1

[3] = test system: rhesus monkeys subjected to 6 Gy TBI; settings: in vivo

Molecule	multilineage recovery (white blood cells, platelets, red blood cells, bone marrow cellularity, colony forming cells) ([1]; 40 mg/kg IM 2 hours after 6 Gy TBI, 14 days post-TBI vs placebo)	effect of increasing the dose on multilineage recovery ([1]; dose up to 200 mg/kg)	day of maximum neutrophilic granulocyte increase after initiation of the treatment (non-irradiated monkeys)	effect on other hematopoietic lineages, bone marrow cellularity and progenitor cell content (non-irradiated monkeys)	increase from baseline levels in neutrophilic granulocytes in the peripheral blood (non-irradiated monkeys; n=5)	increase in CFU-S day 12 relative to radiation controls [2]	MRA, expressed as GM-CFU per femur at 13 days after transplantation ([2]; 40 mg/Kg/d IM, range 0-5785)	bone marrow cellularity [3]	day reticulocytes reached levels >0.05×10^9/mL in peripheral blood [3]	direct local or systemic toxic effects [3]	edema [3]	increase in body weight due to fluid retention [3]	increase of CD34+ cells in BM in comparison to HERF-418 treated monkeys [3]	neutrophil recovery [3]	reduction of the period of leukopenia [3]	shortening of the time to transfusion-independence [3]	transfusions needed to maintain platelets levels of >40×10^6/mL [3]	effect on CFU-S day 12 ([2]; single injection 10 μg Peg-G-CSF IP after first fraction)
C[C@]12CC[C@H]3[C@@H](CC=C4C[C@@H](O)CC[C@@]43C)[C@@H]1CC[C@@H]2O [5-AED, androst-5-ene-3β,17β-diol]	accelerated multilineage recovery	did not augment this effect	2 days	did not affect	3.6 fold	5 fold	1002 colonies	8.7±5.3 ×10^6 cells/mL bone marrow aspirate	19.0±1.1 day	not observed	transient edema, which resolved without sequela	up to 13.6%	90 fold	accelerated neutrophil recovery	4 days	4 days	1.3±0.5	
B1						7 fold												
B2																		did not affect
